# From ChEMBL document CHEMBL3430912, “GSK Tres Cantos Anti-Kinetoplastid Screening (TCAKS) Data”
# Assays:
# Trypanosoma cruzi [1] = assay: (§1) GSK_TCAKS: pIC50 Trypanosoma cruzi Imaging: Infected Cells. […] Cells were then washed once with PBS before infection. T. cruzi trypomastigotes, collected at days 5 to 8 after infection from LLC-MK2 parasite infected cultures, were allowed to swim out for 4h at 37C from a centrifuged pellet (2,500 rpm/10 min/room temperature). Trypomastigotes were then collected and counted in a CASY Cell Counter. Trypomastigotes, in supplemented DMEM, were added to H9c2 cultures in a multiplicity of infection of 1 and incubated for 18 h. Cells were washed once with PBS before incubation of the infected H9c2 monolayer with trypsin (Life-Technologies) to detach cells from the flask. Cells were counted in a CASY Cell Counter using a 150 um capillary and their density set at 5 * 10^4 cells per mL in supplemented assay DMEM. Infected H9c2 were dispensed into 384-well poly-lysine coated assay plates at 50uL per well using a Multidrop Combi dispenser. After seeding them, the plates were incubated at 37C, 5% CO2 for 72h. Cultures were then fixed and stained by addition of 50 uL of a solution containing 8% formaldehyde and 4 uM DRAQ5 DNA dye (BioStatus, UK) per well. […] Five images were collected per well for reliable statistical analysis. Automated image analysis was performed with a script developed on Acapella High Content Imaging and Analysis Software (PerkinElmer). Output: percentage of infected cells per well as a second infection marker.; type: functional, organism-based, Rattus norvegicus; details: H9c2, 4 h
# Leishmania donovani [2] = assay: (§2) GSK_TCAKS: pIC50 Leishmania donovani Imaging: Amastigotes/Macrophages. Assay plates (384-well) were prepared by adding 250nL of compound to each well. For single shot assay, the final compound concentration was 5 uM. […] Automated image analysis was performed with a script developed on Acapella High Content Imaging and Analysis Software (PerkinElmer). Output: Average number of amastigotes per macrophage cell were reported for each well.; type: functional, organism-based, Homo sapiens; details: THP-1
# Trypanosoma cruzi [3] = assay: GSK_TCAKS: pIC50 Trypanosoma cruzi viability assay using beta-GAL activity. This assay was run at single shot at 5uM compound concentration per well. The biological reagents consisted of NIH-3T3 host cells and trypomastigotes parasitic cells; both cell types were set to a 3.3 * 10^5 cells/mL dilution in assay DMEM by means of a CASY cell counter device using a 60um capillary. 6 uL of the mixture were dispensed per well (about 1 * 10^3 host-cells and 1 * 10^3 parasites) with a Multidrop Combi dispenser. […] In all wells, the percentage of DMSO never exceeded 0.5%. Plates incubated for four days at 37C, 5% CO2. The substrate used for the assay fluorescence intensity (FLINT) readout was resorufin-beta-D-galactopiranoside (Sigma-Aldrich) at 5uM per well. It was diluted in PBS supplemented with the soft detergent Igepal (Fluka).; type: functional, organism-based, Mus musculus; details: Tulahuen, NIH3T3
# Leishmania donovani [4] = assay: as §2, with “Infected Macrophages.” for “Amastigotes/Macrophages.”, “Percent” for “Average number”, “infected” for “amastigotes per”, “cells” for “cell”; type: functional, organism-based, Homo sapiens; details: THP-1
# Trypanosoma cruzi [5] = assay: GSK_TCAKS: pIC50 Trypanosoma cruzi Imaging: Amastigotes/Cell. […] Cells were then washed once with PBS before infection. T. cruzi trypomastigotes, collected at days 5 to 8 after infection from LLC-MK2 parasite infected cultures, were allowed to swim out for 4h at 37C from a centrifuged pellet (2,500 rpm/10 min/room temperature). Trypomastigotes were then collected and counted in a CASY Cell Counter. Trypomastigotes, in supplemented DMEM, were added to H9c2 cultures in a multiplicity of infection of 1 and incubated for 18 h. Cells were washed once with PBS before incubation of the infected H9c2 monolayer with trypsin (Life-Technologies) to detach cells from the flask. Cells were counted in a CASY Cell Counter using a 150 um capillary and their density set at 5 * 10^4 cells per mL in supplemented assay DMEM. Infected H9c2 were dispensed into 384-well poly-lysine coated assay plates at 50uL per well using a Multidrop Combi dispenser. After seeding them, the plates were incubated at 37C, 5% CO2 for 72h. Cultures were then fixed and stained by addition of 50 uL of a solution containing 8% formaldehyde and 4 uM DRAQ5 DNA dye (BioStatus, UK) per well. […] Five images were collected per well for reliable statistical analysis. Automated image analysis was performed with a script developed on Acapella High Content Imaging and Analysis Software (PerkinElmer). Output: number of amastigotes per cell as infection level measurement.; type: functional, organism-based, Rattus norvegicus; details: H9c2, 4 h
# [6] = test system: Trypanosoma brucei brucei; assay: GSK_TCAKS: pIC50 Trypanosoma brucei viability assay using fluorescence intensity. Assay plates (1536-well) were prepared by dispensing 25nL of compound solution per well using an Echo acoustic dispenser (Labcyte).; type: functional, organism-based; details: Lister 427, 2 h
# Leishmania donovani [7] = assay: GSK_TCAKS: pIC50 Leishmania donovani viability assay using fluorescence intensity. Assay plates (1536-well) were prepared by adding 30nL per well of compound. For single shot assay, the final compound concentration was 5uM. […] Briefly, eGFP LdBOB axenic amastigotes were harvested, fixed and counted in a CASY cell counter (Roche-Applied Science). A final concentration of 1.5 * 10^5 cells per well were prepared in amastigote media containing 500 U/mL penicillin/streptomycin (Invitrogen) and 6uL was dispensed to each experimental well using a Multidrop Combi dispenser (Thermo Scientific). 6uL of assay media was dispensed to control columns used as reference for 100% compound response. Following incubation for 72 h at 37C, 5% CO2, 2 uL of resazurin was added to each well at a final concentration of 0.5 mM in phosphate buffered saline (PBS) with IGEPAL (Sigma-Aldrich), 0.05% (v/v).; type: functional, organism-based
# [8] = target: Sterol 14-alpha demethylase (Trypanosoma cruzi (strain CL Brener), UniProt Q7Z1V1); assay: GSK_TCAKS: pIC50 CYP51 from Trypanosoma cruzi.; type: functional
# Leishmania donovani [9] = assay: as §2, with “THP-1 Host Macrophages.” for “Amastigotes/Macrophages.”, “THP-1” for “Average number of amastigotes per macrophage”, “cell count” for “cell”; type: functional, organism-based, Homo sapiens
# Trypanosoma cruzi [10] = assay: as §1, with “H2C9” for “Trypanosoma cruzi”, “H9c2 Host Cardiomyocytes.” for “Infected Cells.”, “Number” for “percentage”, “H9c2 Host Cardiomyocytes nuclei to determine drug-related cytotoxicity.” for “infected cells per well as a second infection marker.”; type: functional, organism-based, Rattus norvegicus; details: H9c2, 4 h
# [11] = GSK_TCAKS: pIC50 HepG2 human cell line viability assay using luminiscence. […] Seeding density was checked to ensure that new mono-layers were not more than 50% confluent at the time of harvesting. Cell suspension was added to 500 mL of the same medium at a final density of 1.2 * 10^5 cells/mL. This cell suspension was dispensed (25 uL, 3000 cells per well) into 384-well clear-bottom plates using a Multidrop Combi dispenser. Prior to addition of the cell suspension, the screening compounds (250 nL) were pre-dispensed into the plates with an Echo liquid handler. Plates were incubated for 48 h at 37C, 5% CO2. After incubation, plates equilibrated at room temperature for 30 min before proceeding to develop the luminescent signal. The signal developer, CellTiter-Glo Reagent, was allowed to equilibrate at room temperature for 30 min and added to the plates (25uL per well) using a Multidrop Combi dispenser. Plates were left for 10 min at room temperature for stabilization and then read using a ViewLux.; type: toxicity, cell-based
# [12] = test system: Trypanosoma brucei brucei; assay: GSK_TCAKS: pIC50 Trypanosoma brucei viability assay using luminiscence. Assay plates (1536-well) were prepared. T. brucei cultures were harvested and counted in a CASY cell counter. A parasite suspension was prepared at a final concentration of 5 * 10^4 cells/mL in complete HMI9 medium and 6uL was dispensed to all wells containing compounds using a Multidrop Combi dispenser. 6uL of HMI9 media with 0.4% DMSO were dispensed to control columns. Plates were incubated for 24 h at 37C, 5% CO2 then tempered for 10 min at room temperature. ATP content was quantified by adding 4 uL of CellTiter-Glo Reagent (Promega) according to the manufacturer's instructions. Luminescence was measured using a ViewLux.; type: functional, organism-based; details: Lister 427, CASY
# Sequence of Sterol 14-alpha demethylase (Q7Z1V1 whole entry): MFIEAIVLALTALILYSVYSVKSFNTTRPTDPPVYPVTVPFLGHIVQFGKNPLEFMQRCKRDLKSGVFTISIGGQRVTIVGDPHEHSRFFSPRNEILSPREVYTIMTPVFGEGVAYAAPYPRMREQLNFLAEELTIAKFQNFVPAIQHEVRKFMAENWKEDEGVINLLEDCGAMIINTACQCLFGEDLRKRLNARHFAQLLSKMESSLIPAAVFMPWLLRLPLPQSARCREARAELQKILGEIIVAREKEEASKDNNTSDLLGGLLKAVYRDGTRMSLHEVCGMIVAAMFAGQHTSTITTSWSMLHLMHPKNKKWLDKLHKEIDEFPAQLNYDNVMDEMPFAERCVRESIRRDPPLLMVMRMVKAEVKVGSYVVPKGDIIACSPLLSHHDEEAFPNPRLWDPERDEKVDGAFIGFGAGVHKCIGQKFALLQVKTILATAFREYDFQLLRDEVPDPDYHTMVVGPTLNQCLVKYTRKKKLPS
smiles,measurement,setting,value
Cc1noc(C)c1COc1cccc(C(=O)N=c2[nH]cccc2C)c1,IC50,Trypanosoma cruzi [1],50.1 µM
same,IC50,Leishmania donovani [2],10 µM
same,IC50,Trypanosoma cruzi [3],> 50.1 µM
same,IC50,Leishmania donovani [4],20 µM
same,IC50,Trypanosoma cruzi [5],39.8 µM
same,IC50,[6],0.398 µM
same,IC50,Leishmania donovani [7],> 50.1 µM
same,IC50,[8],50.1 µM
same,IC50,Leishmania donovani [9],6.31 µM
same,IC50,Trypanosoma cruzi [10],2.51 µM
same,IC50 at 48 h,[11],> 100 µM
same,IC50,[12],0.794 µM
Cc1nc(C(=O)Nc2ccc3c(c2)OCO3)nn1-c1ccc(F)cc1,IC50,Trypanosoma cruzi [1],1.26 µM
same,IC50,Leishmania donovani [2],2.51 µM
same,IC50,Trypanosoma cruzi [3],3.16 µM
same,IC50,Leishmania donovani [4],7.94 µM
same,IC50,Trypanosoma cruzi [5],1 µM
same,IC50,[6],> 39.8 µM
same,IC50,Leishmania donovani [7],2 µM
same,IC50,[8],39.8 µM
same,IC50,Leishmania donovani [9],> 50.1 µM
same,IC50,Trypanosoma cruzi [10],> 50.1 µM
same,IC50 at 48 h,[11],> 100 µM
same,IC50,[12],> 39.8 µM
COc1cc(OC)cc(C(NS(=O)(=O)c2ccc(Cl)c(C(F)(F)F)c2)c2nccn2C)c1 (stereo unspecified),IC50,Trypanosoma cruzi [1],6.31 µM
same,IC50,Leishmania donovani [2],5.01 µM
same,IC50,Trypanosoma cruzi [3],3.98 µM
same,IC50,Leishmania donovani [4],6.31 µM
same,IC50,Trypanosoma cruzi [5],3.16 µM
same,IC50,[6],7.94 µM
same,IC50,Leishmania donovani [7],10 µM
same,IC50,[8],31.6 µM
same,IC50,Leishmania donovani [9],> 50.1 µM
same,IC50,Trypanosoma cruzi [10],10 µM
same,IC50 at 48 h,[11],> 100 µM
same,IC50,[12],7.94 µM
Cc1ccc(C)c(CN2C(=O)NC3(CCc4ccccc43)C2=O)c1 (stereo unspecified),IC50,Trypanosoma cruzi [1],20 µM
same,IC50,Leishmania donovani [2],15.8 µM
same,IC50,Trypanosoma cruzi [3],25.1 µM
same,IC50,Leishmania donovani [4],> 50.1 µM
same,IC50,Trypanosoma cruzi [5],7.94 µM
same,IC50,[6],0.501 µM
same,IC50,Leishmania donovani [7],> 50.1 µM
same,IC50,[8],39.8 µM
same,IC50,Leishmania donovani [9],> 50.1 µM
same,IC50,Trypanosoma cruzi [10],> 50.1 µM
same,IC50 at 48 h,[11],> 100 µM
same,IC50,[12],1 µM
CCN(CC)c1ccc(S(=O)(=O)N(CC)CC)c2nonc12,IC50,Trypanosoma cruzi [1],50.1 µM
same,IC50,Leishmania donovani [2],0.126 µM
same,IC50,Trypanosoma cruzi [3],25.1 µM
same,IC50,Leishmania donovani [4],0.398 µM
same,IC50,Trypanosoma cruzi [5],20 µM
same,IC50,[6],25.1 µM
same,IC50,Leishmania donovani [7],6.31 µM
same,IC50,[8],25.1 µM
same,IC50,Leishmania donovani [9],15.8 µM
same,IC50,Trypanosoma cruzi [10],> 50.1 µM
same,IC50 at 48 h,[11],> 100 µM
same,IC50,[12],25.1 µM
COc1ccc(OC)c2c(=O)c(Cc3ccccc3)c(C)[nH]c12,IC50,Trypanosoma cruzi [1],0.501 µM
same,IC50,Leishmania donovani [2],2.51 µM
same,IC50,Trypanosoma cruzi [3],0.224 µM
same,IC50,Leishmania donovani [4],3.98 µM
same,IC50,Trypanosoma cruzi [5],0.126 µM
same,IC50,[6],> 39.8 µM
same,IC50,Leishmania donovani [7],0.398 µM
same,IC50,[8],> 100 µM
same,IC50,Leishmania donovani [9],> 50.1 µM
same,IC50,Trypanosoma cruzi [10],> 50.1 µM
same,IC50 at 48 h,[11],> 100 µM
same,IC50,[12],> 39.8 µM
CCCn1c(NC(=O)CCn2cc(Br)cn2)nc2ccccc21,IC50,Trypanosoma cruzi [1],6.31 µM
same,IC50,Leishmania donovani [2],5.01 µM
same,IC50,Trypanosoma cruzi [3],5.01 µM
same,IC50,Leishmania donovani [4],10 µM
same,IC50,Trypanosoma cruzi [5],2.51 µM
same,IC50,[6],7.94 µM
same,IC50,Leishmania donovani [7],10 µM
same,IC50,[8],10 µM
same,IC50,Leishmania donovani [9],> 50.1 µM
same,IC50,Trypanosoma cruzi [10],25.1 µM
same,IC50 at 48 h,[11],> 100 µM
same,IC50,[12],7.94 µM
CCn1c(NC(=O)Cc2ccc(F)cc2)nc2ccccc21,IC50,Trypanosoma cruzi [1],7.94 µM
same,IC50,Leishmania donovani [2],6.31 µM
same,IC50,Trypanosoma cruzi [3],5.01 µM
same,IC50,Leishmania donovani [4],10 µM
same,IC50,Trypanosoma cruzi [5],3.98 µM
same,IC50,[6],3.16 µM
same,IC50,Leishmania donovani [7],10 µM
same,IC50,[8],25.1 µM
same,IC50,Leishmania donovani [9],> 50.1 µM
same,IC50,Trypanosoma cruzi [10],> 50.1 µM
same,IC50 at 48 h,[11],> 100 µM
same,IC50,[12],5.01 µM
